Results: patent US20130252916A1, “ORAMUCOSAL PHARMACEUTICAL DOSAGE FORM” (UNIVERSITY OF THE WITWATERSRAND, JOHANNESBURG, priority 2005, published 2013)

Columns and labels:
[1] = solubility and dissolution of diluents in water; format: physicochemical; settings: lactose compared with mannitol
[2] = Windholz et al., 1976; cited from earlier work

| rate of dissolution [1] | Compound | solubility (amount of cold water needed to dissolve) [2] [mL] |
| --- | --- | --- |
| slower rate than mannitol | OC[C@H]1O[C@@H](O[C@H]2[C@H](O)[C@@H](O)C(O)O[C@@H]2CO)[C@H](O)[C@@H](O)[C@H]1O (some centres unmarked) [lactose] |  |
|  | OC[C@@H](O)[C@@H](O)[C@H](O)[C@H](O)CO [mannitol] | 5.5 |
